What all share (format): in vivo
Common to all, as to set-up: key: 0: there is no or little difference in the degree of growth between treated plants and untreated plants at the time of observation; 1: evaluated at 6 levels using the indices of 0 to 5; 2: evaluated at 6 levels using the indices of 0 to 5; 3: evaluated at 6 levels using the indices of 0 to 5; The herbicidal values of “4” and “5” show excellent herbicidal activity; 5: the test plants die completely or their growth is completely inhibited

Assay [1] has as its system Solidago altissima. In words: Test Example 2, foliar application, pot test in greenhouse. As to conditions: 29 days after treatment. An excerpt: The herbicidal values of “4” and “5” show excellent herbicidal activity. Each of plastic pots (measuring 12 cm in diameter and 8 cm in height) was filled with upland field soil and Solidago altissima collected from outdoors was transplanted to the plastic pot and grown in a greenhouse for 31 days. Each of the predetermined amounts of a flumioxazin formulation product (trade name: Valor_SX, manufactured by Valent USA Corporation), a sulfosulfuron formulation product (trade name: Monitor, manufactured by Monsanto Company) and a mixture of the flumioxazin formulation product and the sulfosulfuron formulation product was diluted with water, and then the dilution was uniformly sprayed over each plant body from above by a small-sized sprayer. After the treatment, the weeds were grown in a greenhouse for 29 days, and then the herbicidal activity against the weeds was evaluated.

Assay [2] concerns Lolium multiflorum. In words: Test Example 1, soil application, pot test in greenhouse. Conditions: 34 days after application. An excerpt: (§1) The herbicidal values of “4” and “5” show excellent herbicidal activity. Each of plastic pots (measuring 22 cm in diameter and 19 cm in height) was filled with upland field soil and sown with Lolium multiflorum and Alopecurus myosuroides. Each of the predetermined amounts of a flumioxazin formulation product (trade name: Valor_SX, manufactured by Valent USA Corporation), a sulfosulfuron formulation product (trade name: Monitor, manufactured by Monsanto Company) and a mixture of the flumioxazin formulation product and the sulfosulfuron formulation product was diluted with water, and then the dilution was uniformly sprayed over the soil surface by a small-sized sprayer. After the treatment, the weeds were grown in a greenhouse, and the herbicidal activity against the weeds was evaluated at 34 days after application.

The test system of assay [3] is Alopecurus myosuroides. The assay is described as above. Conditions: 34 days after application.
Description: as §1

SMILES strings stand for the structures.

In the case of `C#CCN1C(=O)COc2cc(F)c(N3C(=O)C4=C(CCCC4)C3=O)cc21` [Flumioxazin, N-(7-fluoro-3,4-dihydro-3-oxo-4-prop-2-ynyl-2H-1,4-benzeoxazin-6-yl)cyclohex-1-ene-1,2-dicarboxamide], the results for the “Herbicidal activity Solidago altissima” value in assay [1] (active ingredient 60 g/ha) and in assay [1] (active ingredient 120 g/ha) were 0 and 1, respectively. The “Herbicidal activity Lolium multiflorum” value in assay [2] (active ingredient 10 g/ha) worked out at 0; in assay [2] (active ingredient 20 g/ha), 1. The “Herbicidal activity Alopecurus myosuroides” value in assay [3] (active ingredient 10 g/ha) amounted to 1; in assay [3] (active ingredient 20 g/ha), 4.
On to `CCS(=O)(=O)c1nc2ccccn2c1S(=O)(=O)NC(=O)Nc1nc(OC)cc(OC)n1` [Sulfosulfuron, 1-(4,6-dimethoxypyrimidin-2-yl)-3-(2-ethylsulfonylimidazo[1,2-a]pyridin-3-ylsulfonyl)urea], for which the “Herbicidal activity Solidago altissima” value in assay [1] (active ingredient 40 g/ha) is on record as 2. In addition, the “Herbicidal activity Lolium multiflorum” value in assay [2] (active ingredient 20 g/ha) and in assay [2] (active ingredient 40 g/ha) was 0 in each case. In addition, the “Herbicidal activity Alopecurus myosuroides” value came to 0 in assay [3] (active ingredient 20 g/ha) and 2 in assay [3] (active ingredient 40 g/ha).
